Measurements from BindingDB's records for doi:10.1016/j.bmcl.2011.04.103 (University of Strasburg, 2011).

Assay: Inhibition of N-terminal SHH activated pathway in mouse C3H10T1/2 cells assessed as SAG-induced cell differentiation by alkaline phosphatase assay

Structure (SMILES) | IC50
COc1cccc(CN(C(=O)CC(C)(C)C)[C@H]2C[C@@H](C(=O)N3CCNCC3)N(Cc3ccc4c(c3)OCO4)C2)c1 [N-((3S,5S)-1-(benzo[d][1,3]dioxol-5-ylmethyl)-5-(piperazine-1-carbonyl)pyrrolidin-3-yl)-N-(3-methoxybenzyl)-3,3-dimethylbutanamide] | 300 nM
C[C@H]([C@@H]1CCCCN1)[C@H]1CC[C@H]2[C@@H]3CC=C4C[C@@H](O)CC[C@]4(C)[C@H]3CC[C@]12C | 3200 nM
CC1=C2C[C@H]3[C@@H](CC=C4C[C@@H](O)CC[C@@]43C)[C@@H]2CC[C@]12O[C@@H]1C[C@H](C)CN[C@H]1[C@H]2C | 600 nM
